From patent publication US11109593B2, “Isoxazolin-5-one derivative and herbicide containing same as active ingredient” (HOKKO CHEMICAL INDUSTRY CO., LTD., priority 2017, dated 2021)

What was measured:
Assay type in all cases: in vivo
Echinochloa crus-galli [1] = experiment: Test Example 1: herbicidal effect test by treatment of rice paddy soil (immediately after seeding)
Experimental: (§1) Herbicidal Effect Test by Treatment of Rice Paddy Soil
(§2) Wagner pots with an area of 1/10000 ares were filled with a paddy soil, and after adding water, a compound fertilizer (N:P:K=17:17:17) was added, followed by soil puddling. Then, Echinochloa crus-galli, broad leaf weeds (Lindernia pyxidaria and Monochoria vaginalis) and Scirpus juncoides, 30 seeds each, were sown in a depth of 0 to 1 cm. Water was poured immediately after seeding, and the water depth was kept at about 3 cm. The subsequent management was conducted in a glass greenhouse. Immediately after that, emulsions prepared using the compounds in Table 3 below according to Formulation Example 5 were diluted with water, and a certain amount of the water-diluted agent solutions were dropped. The converted amount of the applied active ingredient corresponded to 120 g per 10 ares.
(§3) This test was conducted in a double system per one agent solution concentration area, and the herbicidal rates (%) were determined by the following equation (Math. 1) on 14 days after the treatment with the agents. Herbicidal Rate (%)={1-(Average Dry Weight (g) of Plant of Treated Area)/(Average Dry Weight (g) of Plant of Untreated Area)}×100 [Math. 1]
(§4) The compound numbers in Table 3 are the same as those in Table 1 and Table 2 above.

[2] = tested on: broad leaf weeds (Lindernia pyxidaria and Monochoria vaginalis); experiment: as above
Experimental: as §1, §2, §3, §4

Scirpus juncoides [3] = experiment: as above
Experimental: as §1, §2, §3, §4

Echinochloa crus-galli [4] = experiment: Test Example 2: herbicidal effect test by treatment during growing period in paddy rice cultivation (seven days after seeding); settings: for Herbicidal rate (%) Echinochloa crus-galli: 120 g/10a active ingredient, assessed 14 days after treatment, dry weight vs untreated area; for herbicidal rate, Echinochloa crus-galli: 120 g/10a, rated 14 days after treatment, paddy soil pots
Experimental: as §3
(§5) Herbicidal Effect Test by Treatment During Growing Period in Paddy Rice Cultivation
as §2, with “was mixed,” for “was added,”, “greenhouse. Emulsions” for “greenhouse. Immediately after that, emulsions”, “Table 4” for “Table 3”, “with water seven days after seeding,” for “with water,”, “ares. The test was conducted in a double system per one agent solution concentration area, and the herbicidal rates (%) were determined by the equation (Math. 1) on 14 days after the treatment with the agents. […] The compound numbers in Table 4 are the same as those in Table 1 and Table 2 above.” for “ares.”

[5] = tested on: broad leaf weeds (Lindernia pyxidaria and Monochoria vaginalis); experiment: as above; settings: for Herbicidal rate (%) Lindernia pyxidaria / Herbicidal rate (%) Monochoria vaginalis: 120 g/10a active ingredient, assessed 14 days after treatment, dry weight vs untreated area; for herbicidal rate, Lindernia pyxidaria / herbicidal rate, Monochoria vaginalis: 120 g/10a, rated 14 days after treatment, paddy soil pots
Experimental: as §3, §5
as §2, with “was mixed,” for “was added,”, “greenhouse. Emulsions” for “greenhouse. Immediately after that, emulsions”, “Table 4” for “Table 3”, “with water seven days after seeding,” for “with water,”, “ares. The test was conducted in a double system per one agent solution concentration area, and the herbicidal rates (%) were determined by the equation (Math. 1) on 14 days after the treatment with the agents. […] The compound numbers in Table 4 are the same as those in Table 1 and Table 2 above.” for “ares.”

Scirpus juncoides [6] = experiment: as above; settings: for Herbicidal rate (%) Scirpus juncoides: 120 g/10a active ingredient, assessed 14 days after treatment, dry weight vs untreated area; for herbicidal rate, Scirpus juncoides: 120 g/10a, rated 14 days after treatment, paddy soil pots
Experimental: as §3, §5
as §2, with “was mixed,” for “was added,”, “greenhouse. Emulsions” for “greenhouse. Immediately after that, emulsions”, “Table 4” for “Table 3”, “with water seven days after seeding,” for “with water,”, “ares. The test was conducted in a double system per one agent solution concentration area, and the herbicidal rates (%) were determined by the equation (Math. 1) on 14 days after the treatment with the agents. […] The compound numbers in Table 4 are the same as those in Table 1 and Table 2 above.” for “ares.”

[7] = 120 g/10a active ingredient, dry weight vs untreated area, 14 days after treatment
[8] = Lindernia pyxidaria, 120 g/10a active ingredient, dry weight vs untreated area, 14 days after treatment
[9] = Monochoria vaginalis, 120 g/10a active ingredient, dry weight vs untreated area, 14 days after treatment
[10] = 120 g/10a active ingredient, 14 days after treatment, dry weight vs untreated area
[11] = Lindernia pyxidaria, 120 g/10a active ingredient, 14 days after treatment, dry weight vs untreated area
[12] = Monochoria vaginalis, 120 g/10a active ingredient, 14 days after treatment, dry weight vs untreated area

SMILES	Herbicidal rate (%) Echinochloa crus-galli (Echinochloa crus-galli [1]; [7]) [%]	Herbicidal rate (%) Lindernia pyxidaria [2, 8] [%]	Herbicidal rate (%) Monochoria vaginalis [2, 9] [%]	Herbicidal rate (%) Scirpus juncoides (Scirpus juncoides [3]; [7]) [%]	Herbicidal rate (%) Echinochloa crus-galli (Echinochloa crus-galli [4]) [%]	Herbicidal rate (%) Lindernia pyxidaria [5] [%]	Herbicidal rate (%) Monochoria vaginalis [5] [%]	Herbicidal rate (%) Scirpus juncoides (Scirpus juncoides [6]) [%]	Herbicidal rate (%) Echinochloa crus-galli (Echinochloa crus-galli [1]; [10]) [%]	Herbicidal rate (%) Lindernia pyxidaria [2, 11] [%]	Herbicidal rate (%) Monochoria vaginalis [2, 12] [%]	Herbicidal rate (%) Scirpus juncoides (Scirpus juncoides [3]; [10]) [%]	herbicidal rate, Echinochloa crus-galli (Echinochloa crus-galli [4]) [%]	herbicidal rate, Lindernia pyxidaria [5] [%]	herbicidal rate, Monochoria vaginalis [5] [%]	herbicidal rate, Scirpus juncoides (Scirpus juncoides [6]) [%]
CCC(CC)Cn1oc(=O)c(Cc2ccccc2N(CC)S(=O)(=O)C(F)(F)F)c1C [Compound 1-264]	90	80	90	100	80	50	80	90								
Cc1c(Cc2ccccc2N(S(=O)(=O)C(F)(F)F)S(=O)(=O)C(F)(F)F)c(=O)on1CCc1ccc(F)cc1 [Compound 1-1044]	90	60	40	40	70	40	40	70								
COc1ccc(Cn2oc(=O)c(Cc3ccccc3N(S(=O)(=O)C(F)(F)F)S(=O)(=O)C(F)(F)F)c2C)cc1 [Compound 1-1022]	90	100	100	90	70	100	100	90								
Cc1c(Cc2ccccc2N(S(=O)(=O)C(F)(F)F)S(=O)(=O)C(F)(F)F)c(=O)on1CCOCc1ccccc1 [Compound 1-1059]									100	80	90	80	90	40	70	70
Cc1c(Cc2ccccc2NS(=O)(=O)C(F)(F)F)c(=O)on1Cc1ccc(Cl)cc1 [Compound 1-186]	90	100	100	90	50	80	80	80								
Cc1c(Cc2ccccc2N(S(=O)(=O)C(F)(F)F)S(=O)(=O)C(F)(F)F)c(=O)on1CCOc1ccccc1 [Compound 1-1058]									90	80	70	90	90	80	90	80
Cc1c(Cc2ccccc2N(S(=O)(=O)C(F)(F)F)S(=O)(=O)C(F)(F)F)c(=O)on1Cc1ccc(Br)cc1 [Compound 1-1016]	90	90	60	80	40	70	80	60								
Cc1c(Cc2ccccc2NS(=O)(=O)C(F)(F)F)c(=O)on1C(C)c1ccc(OC(F)(F)F)cc1 (stereo not shown) [Compound 1-209]	90	60	60	70	40	60	80	90								
Cc1c(Cc2ccccc2N(S(=O)(=O)C(F)(F)F)S(=O)(=O)C(F)(F)F)c(=O)on1C(C)c1ccc(F)cc1 (stereo not shown) [Compound 1-1031]	100	100	100	100	90	100	100	100								
Cc1c(Cc2ccccc2NS(=O)(=O)C(F)(F)F)c(=O)on1Cc1cccc(C(F)(F)F)c1 [Compound 1-193]	90	100	100	90	60	80	80	70								
Cn1oc(=O)c(Cc2ccccc2NS(=O)(=O)C(F)(F)F)c1C(F)(F)F [Compound 1-78]	40	50	50	70	40	40	60	80								
Cc1c(Cc2ccccc2NS(=O)(=O)C(F)(F)F)c(=O)on1C(C)c1ccsc1 (stereo not shown) [Compound 1-235]	90	60	80	80	50	40	60	60								
Cc1c(Cc2ccccc2NS(=O)(=O)C(F)(F)F)c(=O)on1C(C)c1cccc(Cl)c1 (stereo not shown) [Compound 1-206]	90	100	100	90	60	80	90	80								
Cc1c(Cc2ccccc2N(C(=O)OCC(C)C)S(=O)(=O)C(F)(F)F)c(=O)on1CC(C)C [Compound 1-671]	90	90	90	90	90	60	90	90								
C#CCn1oc(=O)c(Cc2ccccc2N(S(=O)(=O)C(F)(F)F)S(=O)(=O)C(F)(F)F)c1C [Compound 1-988]	90	100	100	90	90	100	100	90								
CCCOC(=O)N(c1ccccc1Cc1c(C)n(C(C)COC)oc1=O)S(=O)(=O)C(F)(F)F (stereo not shown) [Compound 1-634]	90	90	90	90	90	90	90	90								
Cc1c(Cc2ccccc2N(S(=O)(=O)C(F)(F)F)S(=O)(=O)C(F)(F)F)c(=O)on1Cc1ccc(F)c(F)c1 [Compound 1-1027]	90	100	100	80	40	40	40	40								
